Measurements reported in PubChem BioAssay (NCI).
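Step 1: Grow cells in 96-well plates. Step 2: Expose to compound for 48 hours at 5 concentrations. Step 3: Interpolate endpoints linearly; if unreached, use highest concentration. GI50 = concentration required for 50% inhibition of growth. TGI: total growth inhibition.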

Tests used:
Assay in all cases: NCI anticancer screen, dose series, 48 h
[1] = test system: OVCAR-8 ovarian
[2] = test system: SF-295 CNS
[3] = test system: K-562 leukemia
[4] = test system: LOX IMVI melanoma
[5] = test system: NCI-H522 lung
[6] = test system: HL-60(TB) leukemia
[7] = test system: T-47D breast
[8] = test system: TK-10 renal
[9] = test system: ACHN renal
[10] = test system: MDA-N

| Compound | TGI [1] [µM] | TGI [2] [µM] | TGI [3] [µM] | TGI [4] [µM] | TGI [5] [µM] | TGI [6] [µM] | TGI [7] [µM] | TGI [8] [µM] | TGI [9] [µM] | GI50 [1] [µM] | GI50 [2] [µM] | GI50 [9] [µM] | GI50 [3] [µM] | GI50 [4] [µM] | GI50 [5] [µM] | GI50 [7] [µM] | GI50 [8] [µM] | TGI [10] [µM] |
| --- | --- | --- | --- | --- | --- | --- | --- | --- | --- | --- | --- | --- | --- | --- | --- | --- | --- | --- |
| COc1ccc(C2CC(c3sc(Nc4ccc(C)cc4)nc3C)=NN2)cc1 (stereo unspecified) | 35.9 | 30.5 | 39.1 | 34.4 | 31.8 | 24.6 |  |  |  |  |  |  |  |  |  |  |  |  |
| CCC1(O)C(=O)OCc2c1cc1n(c2=O)Cc2cc3cc4c(cc3nc2-1)OCO4 (stereo unspecified) | 1.29 | 0.198 | > 100 | 0.0688 | 0.383 | 0.479 | > 100 | 37.3 |  |  |  |  |  |  |  |  |  |  |
| CCC1(CC)C(=O)NC(=O)NC1=S | > 100 | > 100 | > 100 | > 100 | > 100 | > 100 |  | > 100 | > 100 |  |  |  |  |  |  |  |  |  |
| O=[N+]([O-])c1ccc(C[P+]2(c3ccccc3)CCCCC2)cc1 (tested in a mixture with another compound) | > 100 | > 100 | > 100 | > 100 |  | > 100 |  | > 100 | > 100 |  |  |  |  |  |  |  |  |  |
| O=C1c2c(c3c4cc(F)ccc4oc3c3[nH]c4ccccc4c23)C(=O)N1O | > 100 | 9 | > 100 | 2.15 | 5.41 |  | > 100 | 53.4 | 1.73 | 1.82 | 2.33 | 0.398 | 2.09 | 0.5 | 0.53 | 1.59 | 12 |  |
| CCC(C)C(Nc1c2ccccc2nc2c(C(=O)NCCN(C)C)cccc12)C(=O)O (stereo unspecified) | > 100 | 40.9 | > 100 | > 100 | 56.8 |  |  | > 100 | > 100 |  |  |  |  |  |  |  |  | 86.4 |
| COc1cc(/C=C/C(=O)CC(=O)/C=C/c2cc(C)c(O)c(OC)c2)cc(C)c1O | > 100 | > 100 | > 100 | > 100 | > 100 | > 100 | > 100 |  | > 100 |  |  |  |  |  |  |  |  |  |
| Cc1cn(S(=O)(=O)c2ccccc2)c2c(OCc3ccccc3)cc([N+](=O)[O-])cc12 | > 100 | > 100 | > 100 | > 100 | > 100 | > 100 | > 100 | > 100 | > 100 |  |  |  |  |  |  |  |  |  |
| COc1ccc(-c2c(C#N)c(N)[nH]c(=S)c2C#N)cc1 | > 100 | > 100 | > 100 | > 100 | 63 | 69.2 |  | > 100 | > 100 |  |  |  |  |  |  |  |  | 28.5 |
| O=C1OC(C(O)CO)C(C(O)CO)OC1=O (stereo unspecified) | > 10 | > 10 | > 10 |  |  | > 10 | > 10 | > 10 | > 10 |  |  |  |  |  |  |  |  |  |
